Experimental findings from ChEMBL document CHEMBL4359905, “Discovery, structural insight, and bioactivities of BY27 as a selective inhibitor of the second bromodomains of BET proteins” (Eur J Med Chem, 2019) are described below.

Experiment [1] has as its target T1, Bromodomain-containing protein 4 (Homo sapiens, UniProt O60885). The experiment is described as follows: Binding affinity to human recombinant BRD4 BD1 (44 to 168 residues) by fluorescence polarization assay. In general terms: In fluorescence polarisation assays a small probe gives low polarisation when free and higher when bound to something large.
The next experiment has as its system MM1.S. In words: Antiproliferative activity against human MM1S cells assessed as cell growth inhibition after 4 days by CCK8 assay. The class given is functional, cell-based. The conditions noted are these: 96 h. (In general: Tetrazolium assays rely on reduction of a dye to a coloured formazan, in cell work by metabolically active cells.)
Experiment [2] has as its target T1, Bromodomain-containing protein 4. In words: Binding affinity to human recombinant BRD4 BD2 (333 to 460 residues) by fluorescence polarization assay.
For another experiment, the system named is MV4-11. In words: Antiproliferative activity against human MV4-11 cells assessed as cell growth inhibition after 4 days by CCK8 assay. The class given is functional, cell-based. Conditions: MV4-11, 96 h.

In general, Ki refers to a measure of affinity in units of concentration, obtained from inhibition or displacement. The term IC50 denotes the concentration needed to halve the response being measured. Regarding `Cc1nnc2n1-c1ccc(-c3cnn(C)c3)cc1C(Nc1ccc3ccccc3c1)CC2` (centres undefined), the results for the Ki in experiment [1] and in experiment [2] were 419 nM and 24.7 nM, respectively. The half-maximal inhibitory concentration (IC50) is 535 nM in the experiment on MM1.S and 116 nM with MV4-11.

As for `Cc1nnc2n1-c1ccc(-c3ccc(N4CCN(C)CC4)cc3)cc1C(Nc1ccc(Cl)cc1)CC2` (centres undefined), the inhibition constant Ki is 115 nM in experiment [1] and 17.4 nM in experiment [2]. The IC50 with MM1.S was determined as 210 nM; in the experiment on MV4-11, 70.8 nM.

With `Cc1ccc(NC2CCc3nnc(C)n3-c3ccc(-c4ccc(N)nc4)cc32)cc1` (centres undefined), the figures for the Ki in experiment [1] and in experiment [2] were 540 nM and 109 nM, respectively.

`Cc1nnc2n1-c1ccc(-c3ccc(N)nc3)cc1C(Nc1ccc(C#N)cc1)CC2` (centres undefined): the results for the inhibitory constant (Ki) in experiment [1] and in experiment [2] were 508 nM and 80.6 nM, respectively.

In the case of `Cc1nnc2n1-c1ccc(NC(=O)C3CCN(C)CC3)cc1C(Nc1ccc(Cl)cc1)CC2` (centres undefined), the inhibitory constant (Ki) in experiment [1] is 1490 nM; in experiment [2], 102 nM. The figures for the IC50 in the experiment with MM1.S and in the experiment with MV4-11 were 8510 nM and 2410 nM, respectively.

As for `Cc1nnc2n1-c1ccc(-c3ccc(N)nc3)cc1C(Nc1ccc(C(F)(F)F)cc1)CC2` (centres undefined), the inhibition constant (Ki) in experiment [1] came to 576 nM; in experiment [2], 147 nM.

Turning to `Cc1nnc2n1-c1ccc(-c3ccc(N)nc3)cc1C(Nc1cccc3ccccc13)CC2` (centres undefined), the values for the Ki in experiment [1] and in experiment [2] were 712 nM and 41.5 nM, respectively.

As for `Cc1nnc2n1-c1ccc(-c3ccc(CCCN4CCN(C)CC4)cc3)cc1C(Nc1ccc(Cl)cc1)CC2` (centres undefined), the Ki in experiment [1] stood at 81.7 nM; in experiment [2], 12.3 nM. The results for the concentration for half-maximal inhibition (IC50) in the experiment on MM1.S and with MV4-11 were 110 nM and 127 nM, respectively.

For `Cc1nnc2n1-c1ccc(C3=CCN(C)CC3)cc1C(Nc1ccc(Cl)cc1)CC2` (centres undefined), the Ki was determined as 4320 nM in experiment [1] and 413 nM in experiment [2]. Also, the 50% inhibitory concentration (IC50) in the experiment with MM1.S amounted to 3240 nM; with MV4-11 it was 1780 nM.

With `Cc1nnc2n1-c1ccc(-c3ccc(N(C)C)cc3)cc1C(Nc1ccc(Cl)cc1)CC2` (centres undefined), the Ki in experiment [1] came to 466 nM; in experiment [2] it was 65.4 nM. Besides, the half-maximal inhibitory concentration (IC50) came to 1020 nM with MM1.S and 1950 nM in the experiment with MV4-11.

Regarding `CC(=O)Nc1ccc2c(c1)C(Nc1ccc(Cl)cc1)CCc1nnc(C)n1-2` (centres undefined), the results for the inhibition constant (Ki) in experiment [1] and in experiment [2] were 457 nM and 50.3 nM, respectively. Besides, the half-maximal inhibitory concentration (IC50) in the experiment with MM1.S worked out at 1440 nM; in the experiment with MV4-11, 1030 nM.

`Cc1nnc2n1-c1ccc(NS(C)(=O)=O)cc1C(Nc1ccc(Cl)cc1)CC2` (centres undefined): the Ki in experiment [1] is 3350 nM; in experiment [2], 918 nM. Also, the concentration for half-maximal inhibition (IC50) came out at 9060 nM with MM1.S and 4820 nM in the experiment on MV4-11.

Consider `Cc1nnc2n1-c1ccc(-c3cncs3)cc1C(Nc1ccc(Cl)cc1)CC2` (centres undefined), for which the Ki in experiment [1] came out at 266 nM; in experiment [2], 34.8 nM. In addition, the IC50 with MM1.S is 345 nM; in the experiment on MV4-11, 374 nM.

In the case of `Cc1nnc2n1-c1ccc(-c3ccc(CN4CCN(C)CC4)cc3)cc1C(Nc1ccc(Cl)cc1)CC2` (centres undefined), the Ki in experiment [1] stood at 271 nM; in experiment [2], 18 nM. Also, the IC50 is 241 nM with MM1.S and 112 nM in the experiment with MV4-11.

Turning to `Cc1nnc2n1-c1ccc(-c3ccc(C(=O)O)cc3)cc1C(Nc1ccc(Cl)cc1)CC2` (centres undefined), the inhibitory constant (Ki) in experiment [1] came to 247 nM; in experiment [2], 47.3 nM. Moreover, the figures for the IC50 in the experiment on MM1.S and with MV4-11 were 7060 nM and 3260 nM, respectively.

With `Cc1nnc2n1-c1ccc(-c3ccc(N)nc3)cc1C(Nc1ccc(Cl)cc1)CC2` (centres undefined), the figures for the Ki in experiment [1] and in experiment [2] were 636 nM and 68.4 nM, respectively.

Turning to `COc1ccc(NC2CCc3nnc(C)n3-c3ccc(-c4ccc(N)nc4)cc32)cc1` (centres undefined), the Ki in experiment [1] was found to be 1910 nM; in experiment [2], 174 nM.

Take `Cc1nnc2n1-c1ccc(-c3ccc(N)nc3)cc1C(Nc1nn(C)c3ccccc13)CC2` (centres undefined): the Ki in experiment [1] is 10600 nM; in experiment [2] it was 617 nM.

On to `Cc1nnc2n1-c1ccc(-c3ccc(N)nc3)cc1C(Nc1cccc(CO)c1)CC2` (centres undefined), for which the results for the Ki in experiment [1] and in experiment [2] were 1960 nM and 128 nM, respectively.

Take `Cc1nnc2n1-c1ccc(-c3ccc(N)nc3)cc1C(Nc1ccc(F)cc1)CC2` (centres undefined): the inhibition constant (Ki) was 725 nM in experiment [1] and 92.6 nM in experiment [2].

Turning to `Cc1nnc2n1-c1ccc(-c3ccc(N)nc3)cc1C(Nc1cc(C3CC3)nn1C)CC2` (centres undefined), the figures for the Ki in experiment [1] and in experiment [2] were 1960 nM and 376 nM, respectively.
